Reference: patent publication US8759363B2, “Quinazoline-based T cell proliferation inhibitors” (Yissum Research Development Company of the Hebrew …, priority 2010, dated 2014)
pIC50: −log10 of the molar value.

Experiments:
CD3+ cells = experiment: Proliferation of CD3+ cells purified from PBMC, BrdU; format: cell-based; details: Homo sapiens, ConA-stimulated, slightly higher than, read-out: IC50 proliferation of isolated CD3+ cells
Procedure: Blood samples were taken from healthy donors and loaded on a Ficoll density gradient to purify the PBMC population. T cells were purified by human anti-CD3 using an autoMACS instrument (Miltenyi Biotec, Bergisch-Gladbach, Germany), according to the manufacturer's instructions. The identity of T cells was confirmed by flow cytometry, as they stained positive for CD3. Cells were stimulated with ConA (10 μg/ml), ODN2006 (0.5 μg/ml; Enzo Life Sciences), or LPS (50 μg/ml; Sigma-Aldrich, Steinheim, Germany), for 72 h in the presence of the inhibitor, and their proliferation was measured in the BrdU incorporation assay as will be later described.
Proliferation was assessed by BrdU incorporation using a colorimetric ELISA kit (Roche, Germany). Subsequent to labeling with 10 μM BrdU, DNA was denatured and the cells were incubated with anti-BrdU-POD, prior to the addition of colorimetric substrate (TMB). The reaction product was quantified by measuring absorbance at 450 nm in an ELISA plate reader (ELx800 BIO-TEK Instruments Inc.).
PBMC consist of a mixture of mononucleated cells, mostly T cells. To identify the cell type that was inhibited by 2, we first purified T cells from PBMC with an autoMACS apparatus (Miltenyi Biotec), using anti-CD3 antibodies. We were now able to compare three cell populations: total PBMC, CD3+ cells purified from PBMC, and PBMC that had been depleted of CD3+ cells. […]

PBMC and Jurkat cells = experiment: Cell cycle analysis by FACS; format: cell-based, human; details: treated cells, 0.5 μM S101
Procedure: The effects of the inhibition of the cell cycle were analyzed with a fluorescence-activated cell sorter (FACS). Cells were grown in 60 mm diameter plates (Nunc) and were treated with inhibitor for 12 and 24 h. After the indicated time, cells were pooled, pelleted by centrifugation, washed in phosphate-buffered saline (PBS), and fixed with cold 70% ethanol for a minimum of 12 h. Cells were re-pelleted and resuspended in PBS. 50 μg/ml of RNase A was added in the dark for 30 minutes followed by 5 μg/ml of propidium iodide for FACS analysis (Becton Dickinson FACScan).
The fraction of cells in G2 increased from 30% in the untreated cells to 50% in the treated cells.

SLP-76 = SLP-76 tyrosine phosphorylation in Jurkat cells, immunoprecipitation and western blot; format: cell-based, human; details: Jurkat cells treated 16 h, up to 1 μM
Procedure: Jurkat cells were washed in PBS containing Ca^2+ and Mg^2+ (Biological Industries, Beit Haemek), preheated to 37° C. for 15 min, and were either mock stimulated with PBS, or were stimulated for 1 minute with C305 (1:500). Cells were then collected and lysed at a concentration of 2×10^7 cells/ml in cold lysis buffer containing 1% NP-40, 10 mM Tris (pH 7.8), 150 mM NaCl, 1 mM phenylmethylsulfonyl fluoride (PMSF), 2 μg/ml pepstatin A, 1 μg/ml leupeptin, 10 mM sodium pyrophosphate, 0.4 mM EDTA, 0.4 mM sodium orthovanadate, and 50 mM NaF, 50 mM beta-glycerol phosphate pH 7.5 and 20 mM sodium pyrophosphate pH 7.5. After 20 min at 4° C., the lysates were cleared by centrifugation in a microfuge (Eppendorf, centrifuge 5427R) at 16,000×g for 10 min at 4° C. The supernatants were used directly for immunoprecipitation.
Western blots were prepared on nitrocellulose using standard techniques. Membranes were blocked in TBST buffer (10 mM Tris-HCl, pH 7.4 (TBS), 0.2% Tween 20, 170 mM NaCl) containing 5% low-fat milk, then probed overnight with the appropriate primary antibody. […]
Jurkat cells were treated with 2 for 16 h, and SLP-76 phosphorylation was measured by immunoprecipitation of SLP-76 protein followed by western blotting with an antibody to the phosphorylated tyrosines of the protein (FIG. 6A). […]

2C (stimulated) cells = experiment: MLR with resting control cells, stimulated 2C cells; format: cell-based, mouse; details: 0.5 μM, 72 h MLR with IL-7; no inhibitor 3805
Source text: The aim of this test was to determine whether 2 affects only the proliferating cells or there is a general mechanism affecting all cell numbers. For this purpose we mixed 3 cell types: […]: BALB/c, 2C and OT1; […]: CB6F1, TEA and OT2. The OT1 and OT2 are splenocytes that were isolated from OT1 and OT2 mice (Jackson Laboratories, Bar Harbor, Me.),
Thus, the ability to monitor the fate of proliferation and resting cells by FACS was enabled due to the use of the MLR described above for CD4+ and CD8+ and the addition of OT2 and OT1 splenocytes, respectively.
Proliferating cells often secrete cytokines that induce survival of neighbouring cells; since the proliferation was expected to be inhibited we added 50 ng/ml of IL-7. This concentration is sufficient to keep the cells alive, but not to induce proliferation.
Irradiated Balb splenocytes were incubated for 72 h with 2C, and OT1 splenocytes in the presence of IL-7 W/O inhibitor.
The CD4+ and CD8+ were stimulated to proliferate, whereas in the absence of specific stimuli the OT1 and OT2 cell populations were resting, and theses cells were kept alive by the administration of IL-7. […] The number of 2C and OT1 cells that were treated with 0.5 μM 2 was 286 and 1148, respectively, while the number of 2C and OT1 cells that were treated with 0.5 μM 21 (control) was 4767 and 2468, respectively. This is depicted as a bar-graph in FIG. 8C.

**Q.** How did the pIC50 (CD3+ cells) turn out when `COc1cc(-c2nc(Nc3ccc(C)cc3)c3ccccc3n2)cc(OC)c1OC` [Compound 2, N-p-tolyl-2-(3,4,5-trimethoxyphenyl)quinazolin-4-amine] was run?
**A.** < 7.00

**Q.** What about the sub-G1 population (PBMC and Jurkat cells; untreated 2%) of the same compound?
**A.** 9.5%

**Q.** And the “fraction of cells in G2” value (PBMC and Jurkat cells; untreated 30%)?
**A.** 50%

**Q.** What about the “tyrosine phosphorylation of SLP-76” value (SLP-76) of the same compound?
**A.** reduced but not abolished

**Q.** And the “number of 2C (stimulated) cells” value (2C (stimulated) cells)?
**A.** 286
